From patent US20250144223A1, “PROTEIN DEGRADATION COMPOUND BASED ON NAMPT TARGET PROTEIN AND APPLICATION THEREOF” (GLUETACS THERAPEUTICS (SHANGHAI) CO., LTD., priority 2021, published 2025) come the findings set out here.

As usually defined, the IC50 is the concentration that inhibits the measured activity by half.

SMILES strings stand for the structures.

The assay has as its system Jurkat. The assay can be described thus: CellTiter-Glo Luminescent Cell Viability Assay, half inhibitory concentration (IC50) on tumor cell proliferation. The following applies: Homo sapiens, Jurkat cells, 72 h treatment. It counts as cell-based. How it is done: The tumor cells used herein were cultured in a cell culture medium at 37° C. in an incubator with 5% CO2, where the cell culture medium was supplemented with 10% FBS, as well as penicillin at a final concentration of 100 U/mL and streptomycin at a final concentration of 100 μg/mL. Prior to experimentation, all cells used were identified as correct cells by STR cells, and were negative for mycoplasma through routine testing.
IC50 values of the compounds of the present disclosure (including the compounds in Table 1 and compounds of examples) were measured using the CellTiter-Glo® Luminescent Cell Viability Assay kit from Promega Corporation. Assay details are as follows: Cells were seeded in 100 μL RPMI1640 medium containing serum at a density of 20,000 cells/well. After 24 h, the inoculated cells were treated with the compounds of the present disclosure which were serially diluted. After the cells were treated with the compounds of the present disclosure for 72 h, the CellTiter-Glo® reagent was added to the culture medium for cell viability assessment according to the instructions provided with the kit. DMSO served as the negative control, and FK866 inhibitor was used as the positive control, both treated with the same protocol as the compounds of the present disclosure. The growth inhibition of the compounds of the present disclosure on cells was plotted by Prism Graphpad software, and the IC50 values of the compounds of the present disclosure were calculated therefrom.
Background: In ATP-based viability assays light output follows the ATP content of the culture.
The compound `O=C(/C=C/c1cccnc1)NCCCCC1CCN(C(=O)c2ccc(N3CCN(C(=O)COCCOCCOCCOCCOCCSc4cccc5c4C(=O)N(C4CCC(=O)NC4=O)C5=O)CC3)cc2)CC1` (centres unmarked) [SIAIS631115, (E)-N-(4-(1-(4-(4-(17-((2-(2,6-dioxopiperidin-3-yl)-1,3-dioxoisoindolin-4-yl)thio)-3,6,9,12,15-pentaoxaheptadecanoyl)piperazin-1-yl)benzoyl)piperidin-4-yl)butyl)-3-(pyridin-3-yl)acrylamide] returned a half-maximal inhibitory concentration (IC50) of 74.2 nM.

On to `O=C(/C=C/c1cccnc1)NCCCCC1CCN(C(=O)c2ccc(N3CCN(C(=O)COCCOCCOCCOCCOCCSc4cccc5c4CN(C4CCC(=O)NC4=O)C5=O)CC3)cc2)CC1` (centres unmarked) [SIAIS631118, (E)-N-(4-(1-(4-(4-(17-((2-(2,6-dioxopiperidin-3-yl)-1-oxoisoindolin-4-yl)thio)-3,6,9,12,15-pentaoxaheptadecanoyl)piperazin-1-yl)benzoyl)piperidin-4-yl)butyl)-3-(pyridin-3-yl)acrylamide], for which the IC50 was 66.6 nM. For `O=C(/C=C/c1cccnc1)NCCCCC1CCN(C(=O)c2ccc(N3CCN(CCCC#Cc4cccc5c4C(=O)N(C4CCC(=O)NC4=O)C5=O)CC3)cc2)CC1` (centres unmarked) [SIAIS631119, (E)-N-(4-(1-(4-(4-(5-(2-(2,6-dioxopiperidin-3-yl)-1,3-dioxoisoindolin-4-yl)pent-4-yn-1-yl)piperazin-1-yl)benzoyl)piperidin-4-yl)butyl)-3-(pyridin-3-yl)acrylamide], half-maximal inhibition (IC50) was put at 623 nM. With `O=C(/C=C/c1cccnc1)NCCCCC1CCN(C(=O)c2ccc(N3CCN(CCCCC#Cc4cccc5c4C(=O)N(C4CCC(=O)NC4=O)C5=O)CC3)cc2)CC1` (centres unmarked) [SIAIS631120, (E)-N-(4-(1-(4-(4-(6-(2-(2,6-dioxopiperidin-3-yl)-1,3-dioxoisoindolin-4-yl)hex-5-yn-1-yl)piperazin-1-yl)benzoyl)piperidin-4-yl)butyl)-3-(pyridin-3-yl)acrylamide] the figure was 71 nM; with `O=C(/C=C/c1cccnc1)NCCCCC1CCN(C(=O)c2ccc(N3CCN(CCCCCCC#Cc4cccc5c4C(=O)N(C4CCC(=O)NC4=O)C5=O)CC3)cc2)CC1` (centres unmarked) [SIAIS631121, (E)-N-(4-(1-(4-(4-(8-(2-(2,6-dioxopiperidin-3-yl)-1,3-dioxoisoindolin-4-yl)oct-7-yn-1-yl)piperazin-1-yl)benzoyl)piperidin-4-yl)butyl)-3-(pyridin-3-yl)acrylamide], 63.9 nM; with `O=C(/C=C/c1cccnc1)NCCCCC1CCN(C(=O)c2ccc(N3CCC(N4CCNCC4)CC3)nn2)CC1` [SIAIS631135, (E)-N-(4-(1-(6-(4-(piperazin-1-yl)piperidin-1-yl)pyridazine-3-carbonyl)piperidin-4-yl)butyl)-3-(pyridin-3-yl)acrylamide], 725 nM.

Turning to `O=C(/C=C/c1cccnc1)NCCCCC1CCN(C(=O)c2ccc(C3CCN(CCCCCC#Cc4cccc5c4CN(C4CCC(=O)NC4=O)C5=O)CC3)cc2)CC1` (centres unmarked) [SIAIS631139, (E)-N-(4-(1-(4-(1-(7-(2-(2,6-dioxopiperidin-3-yl)-1-oxoisoindolin-4-yl)hept-6-yn-1-yl)piperidin-4-yl)benzoyl)piperidin-4-yl)butyl)-3-(pyridin-3-yl)acrylamide], the IC50 was determined as 5.23 nM.

Compound `O=C(/C=C/c1cccnc1)NCCCCC1CCN(C(=O)c2ccc(C3CCN(CCCCCCC#Cc4cccc5c4CN(C4CCC(=O)NC4=O)C5=O)CC3)cc2)CC1` (centres unmarked) [SIAIS631140, (E)-N-(4-(1-(4-(1-(8-(2-(2,6-dioxopiperidin-3-yl)-1-oxoisoindolin-4-yl)oct-7-yn-1-yl)piperidin-4-yl)benzoyl)piperidin-4-yl)butyl)-3-(pyridin-3-yl)acrylamide] gave a half-maximal inhibitory concentration (IC50) of 9.7 nM. `O=C(/C=C/c1cccnc1)NCCCCC1CCN(C(=O)c2ccc(C3CCN(CCCCSc4cccc5c4CN(C4CCC(=O)NC4=O)C5=O)CC3)cc2)CC1` (centres unmarked) [SIAIS631141, (E)-N-(4-(1-(4-(1-(4-((2-(2,6-dioxopiperidin-3-yl)-1-oxoisoindolin-4-yl)thio)butyl)piperidin-4-yl)benzoyl)piperidin-4-yl)butyl)-3-(pyridin-3-yl)acrylamide] returned a concentration for half-maximal inhibition (IC50) of 5.36 nM. In turn, `O=C(/C=C/c1cccnc1)NCCCCC1CCN(C(=O)c2ccc(N3CCNCC3)nn2)CC1` [SIAIS632004, (E)-N-(4-(1-(6-(piperazin-1-yl)pyridazine-3-carbonyl)piperidin-4-yl)butyl)-3-(pyridin-3-yl)acrylamide] returned a half-maximal inhibitory concentration (IC50) of 362 nM.

With `O=C(/C=C/c1cccnc1)NCCCCC1CCN(C(=O)c2ccc(N3CCC(N4CCN(CCCCCC#Cc5cccc6c5CN(C5CCC(=O)NC5=O)C6=O)CC4)CC3)nn2)CC1` (centres unmarked) [SIAIS632005, (E)-N-(4-(1-(6-(4-(4-(7-(2-(2,6-dioxopiperidin-3-yl)-1-oxoisoindolin-4-yl)hept-6-yn-1-yl)piperazin-1-yl)piperidin-1-yl)pyridazine-3-carbonyl)piperidin-4-yl)butyl)-3-(pyridin-3-yl)acrylamide], the concentration for half-maximal inhibition (IC50) amounted to 3.98 nM. Take `O=C(/C=C/c1cccnc1)NCCCCC1CCN(C(=O)c2ccc(N3CCC(N4CCN(CCCCCCC#Cc5cccc6c5CN(C5CCC(=O)NC5=O)C6=O)CC4)CC3)nn2)CC1` (centres unmarked) [SIAIS632006, (E)-N-(4-(1-(6-(4-(4-(8-(2-(2,6-dioxopiperidin-3-yl)-1-oxoisoindolin-4-yl)oct-7-yn-1-yl)piperazin-1-yl)piperidin-1-yl)pyridazine-3-carbonyl)piperidin-4-yl)butyl)-3-(pyridin-3-yl)acrylamide]: the 50% inhibitory concentration (IC50) was 6.39 nM. For `O=C(/C=C/c1cccnc1)NCCCCC1CCN(C(=O)c2ccc(N3CCC(N4CCN(CCCCSc5cccc6c5CN(C5CCC(=O)NC5=O)C6=O)CC4)CC3)nn2)CC1` (centres unmarked) [SIAIS632007, (E)-N-(4-(1-(6-(4-(4-(4-((2-(2,6-dioxopiperidin-3-yl)-1-oxoisoindolin-4-yl)thio)butyl)piperazin-1-yl)piperidin-1-yl)pyridazine-3-carbonyl)piperidin-4-yl)butyl)-3-(pyridin-3-yl)acrylamide], half-maximal inhibition (IC50) required 3.59 nM.

For the compound `O=C(/C=C/c1cccnc1)NCCCCC1CCN(C(=O)c2ccc(N3CCN(CCCCCC#Cc4cccc5c4CN(C4CCC(=O)NC4=O)C5=O)CC3)nn2)CC1` (centres unmarked) [SIAIS632010, (E)-N-(4-(1-(6-(4-(7-(2-(2,6-dioxopiperidin-3-yl)-1-oxoisoindolin-4-yl)hept-6-yn-1-yl)piperazin-1-yl)pyridazine-3-carbonyl)piperidin-4-yl)butyl)-3-(pyridin-3-yl)acrylamide], 8.35 nM corresponded to half-maximal inhibition (IC50).

The compound `O=C(/C=C/c1cccnc1)NCCCCC1CCN(C(=O)c2ccc(N3CCN(CCCCCCC#Cc4cccc5c4CN(C4CCC(=O)NC4=O)C5=O)CC3)nn2)CC1` (centres unmarked) [SIAIS632011, (E)-N-(4-(1-(6-(4-(8-(2-(2,6-dioxopiperidin-3-yl)-1-oxoisoindolin-4-yl)oct-7-yn-1-yl)piperazin-1-yl)pyridazine-3-carbonyl)piperidin-4-yl)butyl)-3-(pyridin-3-yl)acrylamide] registered an IC50 of 9.3 nM.

In the case of `O=C(/C=C/c1cccnc1)NCCCCC1CCN(C(=O)c2ccc(N3CCN(CCCCSc4cccc5c4CN(C4CCC(=O)NC4=O)C5=O)CC3)nn2)CC1` (centres unmarked) [SIAIS632012, (E)-N-(4-(1-(6-(4-(4-((2-(2,6-dioxopiperidin-3-yl)-1-oxoisoindolin-4-yl)thio)butyl)piperazin-1-yl)pyridazine-3-carbonyl)piperidin-4-yl)butyl)-3-(pyridin-3-yl)acrylamide], inhibition was half-maximal at 1.66 nM (IC50).

For `O=C(/C=C/c1cccnc1)NCCCCC1CCN(C(=O)c2ccc(N3CCN(C(=O)CNc4cccc5c4CN(C4CCC(=O)NC4=O)C5=O)CC3)cc2)CC1` (centres unmarked) [SIAIS632014, (E)-N-(4-(1-(4-(4-((2-(2,6-dioxopiperidin-3-yl)-1-oxoisoindolin-4-yl)glycyl)piperazin-1-yl)benzoyl)piperidin-4-yl)butyl)-3-(pyridin-3-yl)acrylamide], the IC50 was 6.81 nM. With `O=C(/C=C/c1cccnc1)NCCCCC1CCN(C(=O)c2ccc(N3CCN(C(=O)CCCNc4cccc5c4CN(C4CCC(=O)NC4=O)C5=O)CC3)cc2)CC1` (centres unmarked) [SIAIS632015, (E)-N-(4-(1-(4-(4-(4-((2-(2,6-dioxopiperidin-3-yl)-1-oxoisoindolin-4-yl)amino)butanoyl)piperazin-1-yl)benzoyl)piperidin-4-yl)butyl)-3-(pyridin-3-yl)acrylamide] the figure was 523 nM; with `O=C(/C=C/c1cccnc1)NCCCCC1CCN(C(=O)c2ccc(N3CCN(C(=O)CCCCNc4cccc5c4CN(C4CCC(=O)NC4=O)C5=O)CC3)cc2)CC1` (centres unmarked) [SIAIS632016, (E)-N-(4-(1-(4-(4-(5-((2-(2,6-dioxopiperidin-3-yl)-1-oxoisoindolin-4-yl)amino)pentanoyl)piperazin-1-yl)benzoyl)piperidin-4-yl)butyl)-3-(pyridin-3-yl)acrylamide], 64.4 nM; with `O=C(/C=C/c1cccnc1)NCCCCC1CCN(C(=O)c2ccc(N3CCN(C(=O)CCCCCNc4cccc5c4CN(C4CCC(=O)NC4=O)C5=O)CC3)cc2)CC1` (centres unmarked) [SIAIS632017, (E)-N-(4-(1-(4-(4-(6-((2-(2,6-dioxopiperidin-3-yl)-1-oxoisoindolin-4-yl)amino)hexanoyl)piperazin-1-yl)benzoyl)piperidin-4-yl)butyl)-3-(pyridin-3-yl)acrylamide], 21.2 nM.
